Structures can show the parent of a compound that is named as a salt.
What was measured:
[1] = tested on: SSPN-HiBiT protein (sarcospan); test: C2C12 SSPN-HiBiT protein reporter assay (12-well and 384-well format); type: cell-based, murine; conditions: for SSPN-HiBiT, fold change over vehicle: *p<0.05
Procedure: C2C12 SSPN-HiBiT myoblasts were seeded at 25,000 cells per well in 2 ml of growth media in 12 well-plates and incubated for 3 days. Upon reaching confluency, the growth media was replaced with 2 ml of differentiation media. At day 2 of differentiation, the media on the cells was replaced with 2 ml of differentiation media containing compounds at a final concentration of 5.5 μM in 0.06% DMSO. For vehicle control-treated cells, 0.06% DMSO was added to the cells. After 48 hrs the cells were washed with PBS and frozen for 2-24 hrs. The plates containing cells were thawed on ice and 100 μl of ice-cold modified RIPA buffer containing 1% Triton X-100, 0.05% DOC, 0.05% SDS, and Halt Protease Inhibitor was added to each well. Cells were scratched, transferred into 1.5 ml tubes, and centrifuged for 20 min at 16,000×g at 4° C. The cell lysates were transferred into new tubes. DC assay was performed on cell lysates to determine protein concentration. White walled, white bottom 384-well microplates (Greiner) were prefilled with 15 μl of PBS and 15 μl of cell lysates were added to each well in triplicate. Then 30 μl Nano-Glo HiBiT Lytic Detection working solution was added to each well and incubated for 30 min at RT with shaking. The luminescence was measured on the EnVision plate reader and the signal was normalized to protein concentration and signal from vehicle-treated controls.
C2C12 SSPN-HiBiT myoblasts were seeded at 500 cells per well in 50 μl of growth media in 384-well white, clear bottom microplates (Greiner) and incubated for 3 days. Upon reaching confluency, the growth media was replaced with 50 μl of differentiation media consisting of phenol-red free DMEM with 2% horse serum (Sigma-Aldrich) using an EL406 combination washer dispenser (Biotek). At day 2 of differentiation, the media on the cells was aspirated, left with a residual volume of 10 μl, and replaced with 30 μl of fresh differentiation media. 0.5 μl of small molecule in DMSO or DMSO alone (for vehicle and positive control wells) were added to each well using a Biomek Fx (Beckman). To ensure proper mixing of the DMSO, 50 μl of additional differentiation media was added to all wells except the positive control treated wells. The final concentration of compound in each treated well was 0.5-10 μM in 0.55% DMSO and 0.55% DMSO only for vehicle. After 48 hrs of incubation, the plate was washed with phenol red-free DMEM, aspirated, and left with a residual volume of 5 μl using EL406 combination washer dispenser. After the wash, 25 μl of differentiation media containing 12 μM DRAQ5 nuclear stain was added to reach a final concentration 10 μM in each well and incubated for 15 min at 37° C. with 5% CO2. The cells were imaged using ImageXpress Micro Confocal High Content Imaging System (Molecular Devices). The nuclei count of imaged cells were determined using a custom module analysis in MetaXpress Analysis software (Molecular Devices). After imaging and analysis, the plate was aspirated, left with a residual volume of 5 μl and placed at −80° C. for 2-24 hrs. The plate was thawed at RT and 25 μl of PBS was added, followed by 30 μl of Nano-Glo HiBiT Lytic Detection working solution prepared according manufacturer recommendations. Luminescence was measured using the EnVision plate reader and the signal of each well was normalized to nuclei count and signal from vehicle-treated controls.
In order to effectively test new analogues, we created method for detecting SSPN protein in cells, e.g., SSPN-HiBiT. SSPN-HiBiT based on a murine C2C12 cell line expressing endogenous SSPN protein with an N-term fusion protein called the HiBiT, an 11 amino acid subunit of a luciferase enzyme (FIG. 10a). The SSPN-HiBiT protein is quantified through addition of substrate and a larger subunit of the luciferase enzyme to catalyze the formation of luminescent signal. […]

SSPN transcript = test: SSPN gene expression after systemic (subcutaneous) treatment of mdx mice; type: in vivo; conditions: 20 mg/kg daily subcutaneous, 13 days, quadriceps
Procedure: For the preliminary safety assessment of OT-9, we performed IP injections in 6 month old C57/B16 males. The mice were injected with 100 μl of vehicle (5% DMSO (Sigma), 95% PBS), 100 μl of 30 mg/kg of OT-9 in vehicle, or 100 μl of 50 mg/kg of OT-9 in vehicle (n=1 mouse per treatment). […] For assessment of activity, 20-weeks old male mdx littermates were injected in both tibialis anterior muscles with vehicle (5% DMSO, 95% PBS) or 86 μg of OT-9. Two mice were injected in both TAs with vehicle and three mice were injected in both TAs with 200 of OT-9 (9.4 mM solution containing 86 μg of OT-9). After 4 hours, the muscles were harvested and processed for gene expression analysis. For assessment of activity of OT-9m after local administration, 19-22-weeks old mdx males were injected in both tibialis anterior muscles with vehicle (5% DMSO, 95% PBS) or 3 mg/kg and 10 mg/kg of OT-9m. After 4 hours, the muscles were harvested and processed for gene expression analysis. […]
Followed by local administration, we evaluated ability of OT-9m to enhance SSPN expression in mdx mice after systemic treatment. […] We determined that mice overexpressing sarcospan by 1.5-fold were not rescued, while mice overexpressing sarcospan by 3-fold were rescued.

SSPN gene expression = SSPN gene expression in tibialis anterior after intramuscular injection in mdx mice; type: in vivo; conditions: 4 hours
Procedure: For the preliminary safety assessment of OT-9, we performed IP injections in 6 month old C57/B16 males. The mice were injected with 100 μl of vehicle (5% DMSO (Sigma), 95% PBS), 100 μl of 30 mg/kg of OT-9 in vehicle, or 100 μl of 50 mg/kg of OT-9 in vehicle (n=1 mouse per treatment). […] For assessment of activity, 20-weeks old male mdx littermates were injected in both tibialis anterior muscles with vehicle (5% DMSO, 95% PBS) or 86 μg of OT-9. Two mice were injected in both TAs with vehicle and three mice were injected in both TAs with 200 of OT-9 (9.4 mM solution containing 86 μg of OT-9). After 4 hours, the muscles were harvested and processed for gene expression analysis. For assessment of activity of OT-9m after local administration, 19-22-weeks old mdx males were injected in both tibialis anterior muscles with vehicle (5% DMSO, 95% PBS) or 3 mg/kg and 10 mg/kg of OT-9m. After 4 hours, the muscles were harvested and processed for gene expression analysis. For assessment of activity of OT-9m after systemic administration, 13-weeks old mdx males were injected subcutaneously with vehicle (4% PEG-200 in hydroxypropyl-b-cyclodextrin) or 20 mg/kg/day of OT-9m. After 13 days of treatment, the muscles were harvested and processed for gene expression analysis.
After the preliminary safety evaluation, we tested the ability of OT-9 to increase SSPN gene expression in vivo. […] Five 20-weeks old male mdx littermates were subjected to intramuscular injections in both tibialis anterior (TA) muscles. Two mice were injected in both TAs with vehicle and […] were injected with 3 mg/kg of OT-9 (molar equivalent of 9.4 mM used in the safety assessment). After 4 hours of treatment, the TAs were harvested and processed for gene expression analysis. […] After determination that OT-9 is capable of increasing SSPN gene expression in vivo, we evaluated one of its derivatives, OT-9m, for its ability to increase SSPN expression in mdx mice. OT-9m was chosen based on its improved activity in vitro compared to OT-9 (compare, Table 1, entries 1 & 14). To assess activity OT-9m in vivo after local administration, eleven 19-22 weeks old male mdx mice were subjected to intramuscular injections in both tibialis anterior (TA) muscles. Four mice were injected in both TAs with vehicle, three mice were injected with 3 mg/kg of OT-9m and four mice were injected with 10 mg/kg of OT-9m. After 4 hours of treatment, the TAs were harvested and processed for gene expression analysis.

Compound | SSPN-HiBiT, fold change over vehicle ([1]; Table 1) | SSPN-HiBiT, fold change over vehicle ([1]; Table 2) | other results
CCN(CC)c1ccc2cc(C(=O)Nc3ccc(C(=O)N4CCCCCC4)cc3)cnc2c1 | 1.62* fold change over vehicle | – | –
CCN(CC)c1ccc2cc(C(=O)Nc3ccc(C(=O)N4CCCOCC4)cc3)cnc2c1 | 1.3* fold change over vehicle | – | –
CCN(CC)c1ccc2cc(C(=O)Nc3nnc(C(=O)N4CCOCC4)[nH]3)cnc2c1 | 1.34* fold change over vehicle | – | –
CCN(CC)c1ccc2cc(C(=O)Nc3ccc(C(=O)N4CCN(C)CC4)cc3)cnc2c1 | 1.47* fold change over vehicle | – | –
CCN(CC)C(=O)c1ccc(NC(=O)c2cnc3cc(N(CC)CC)ccc3c2)cc1 | 1.75* fold change over vehicle | – | –
COc1ccc2nc(C)c(C(=O)Nc3ccc(C(=O)N4CCCOCC4)cc3)cc2c1 | 1.22* fold change over vehicle | – | –
COc1ccc2[nH]c(=O)c(C(=O)Nc3ccc(C(=O)N4CCCCCC4)cc3)cc2c1 | 1.03 fold change over vehicle | – | –
CCN(CC)C(=O)c1ccc(NC(=O)c2cc3cc(OC)ccc3[nH]c2=O)cc1 | 1.51* fold change over vehicle | – | –
COc1ccc2c(c1)CC(C(=O)Nc1ccc(C(=O)N3CCN(C)CC3)cc1)C(=O)N2 (stereo not drawn) | 1.46* fold change over vehicle | – | –
Cc1cc2cc(C#N)c(OCC(=O)c3ccc(F)cc3F)nc2cc1C | – | 1.22* fold change over vehicle | –
Cc1cc2cc(C#N)c(S(=O)(=O)CC(=O)c3ccc(F)cc3)nc2cc1C | – | 1.23* fold change over vehicle | –
COc1ccc(C(=O)COc2nc3cc(C)c(C)cc3cc2C#N)cc1 | – | 1.27* fold change over vehicle | –
Cc1cc2cc(C#N)c(OCC(=O)c3ccc(O)cc3)nc2cc1C | – | 1.21 fold change over vehicle | –
Cc1cc(C)c(C#N)c(OCC(=O)c2ccc(N(C)C)cc2)n1 [2-(2-(4-(dimethylamino)phenyl)-2-oxoethoxy)-4,6-dimethylnicotinonitrile] | – | 1.09* fold change over vehicle | –
Cc1cc2cc(C#N)c(OCC(=O)c3ccc(N(C)C)cc3)nc2cc1C [2-(2-(4-(dimethylamino)phenyl)-2-oxoethoxy)-6,7-dimethylquinoline-3-carbonitrile] | – | 1.04* fold change over vehicle | –
Cc1cc(C)c2nc(OCC(=O)c3ccc(N(C)C)cc3)c(C#N)cc2c1 [2-(2-(4-(dimethylamino)phenyl)-2-oxoethoxy)-6,8-dimethylquinoline-3-carbonitrile] | – | 1.3* fold change over vehicle | –
Cc1cc2cc(C#N)c(SCC(=O)c3ccc(F)cc3)nc2cc1C [2-((2-(4-fluorophenyl)-2-oxoethyl)thio)-6,7-dimethylquinoline-3-carbonitrile] | – | 1.48* fold change over vehicle | –
O=C1Nc2ccc(I)cc2/C1=C/c1cc(Br)c(O)c(Br)c1 [GW5074, reference compound] | – | – | increase in SSPN-HiBiT levels ([1]; SSPN-HiBiT C2C12 myotubes, 5 μM): 1.35 fold
Nc1ccc2ncc(C(=O)Nc3ccc(C(=O)N4CCCOCC4)cc3)cc2c1 [N-(4-(1,4-oxazepane-4-carbonyl)phenyl)-6-aminoquinoline-3-carboxamide hydrochloride] | 1.09* fold change over vehicle | – | –
COc1ccc2nc(C)c(C(=O)Nc3ccc(C(=O)N4CCCCCC4)cc3)cc2c1 [N-(4-(azepane-1-carbonyl)phenyl)-6-methoxy-2-methylquinoline-3-carboxamide] | 1.4* fold change over vehicle | – | –
CCN(CC)C(=O)c1ccc(NC(=O)c2cc3ccccc3nc2C)cc1 [N-(4-(diethylcarbamoyl)phenyl)-2-methylquinoline-3-carboxamide] | 1.08* fold change over vehicle | – | –
CCN(CC)C(=O)c1ccc(NC(=O)c2c(C)c3ccccc3[nH]c2=O)cc1 [N-(4-(diethylcarbamoyl)phenyl)-4-methyl-2-oxo-1,2-dihydroquinoline-3-carboxamide] | 1.21* fold change over vehicle | – | –
CCN(CC)C(=O)c1ccc(NC(=O)c2cc3ccc(F)cc3[nH]c2=O)cc1 [N-(4-(diethylcarbamoyl)phenyl)-7-fluoro-2-oxo-1,2-dihydroquinoline-3-carboxamide] | 1.45* fold change over vehicle | – | –
COc1ccc2[nH]c(=O)c(C(=O)Nc3ccc(C(=O)N4CCCOCC4)cc3)cc2c1 [OT-9m, N-(4-(1,4-oxazepane-4-carbonyl)phenyl)-6-methoxy-2-oxo-1,2-dihydroquinoline-3-carboxamide] | 2.4* fold change over vehicle | – | increase of SSPN transcript (SSPN transcript): 2 fold; SSPN gene expression in tibialis anterior (SSPN gene expression; 3 mg/kg and 10 mg/kg intramuscular): increased SSPN gene expression; adverse effects after local injection (SSPN gene expression; OT-9m 3 mg/kg and 10 mg/kg intramuscular, both TA): No adverse effects
